Laboratory results as given in patent publication US12161636B2, “Method of increasing lifespan in mammals” (priority 2023, dated 2024).
Where “and” joins values, the source holds several entries; their conditions need not be identical. Equal values may be shown once. Entries after “also recorded” stand apart in the source; their conditions may differ.

Assays:
dogs [1] = conditions: 12 weeks; oral 30, 60, 150 mg/kg/day; cited from earlier work
Beagle dogs [2] = assay: Pioglitazone started 2 weeks before HFD to prevent metabolic dysfunction; OGTT and HIEG clamp (Example 5); type: in vivo, dog
Text: The purpose of this study was to assess the impact of pioglitazone on HFD-induced insulin resistance, hyperinsulinemia and fatty acid regulation in beagle dogs. We hypothesized that administration of pioglitazone to HFD-fed, metabolically dysfunctional dogs would (1) upregulate adiponectin levels (2) protect whole body insulin sensitivity as measured by an oral glucose tolerance test (OGTT) and hyperinsulinemic euglycemic clamp (HIEG) and (3) prevent increased deleterious fatty acid levels in the face of a HFD.
Study Design: Twenty four animals (between 1 and 2 years old) were acclimated for at least 2 weeks and surgically implanted with a femoral artery catheter under anesthesia. 2 baseline tests were performed before any treatment: an OGTT and a HIEG clamp.
The dogs were then randomly assigned to one of 3 groups: a placebo group (n=8) that received an empty capsule daily, a group that received 1 mg/kg pioglitazone in the form of a 15 mg pill (Dose 1, n=8), a group that received 2 mg/kg pioglitazone in the form of […] (Dose 2, n=8). Pioglitazone pills (Actos, Teva Pharmaceuticals, NJ) were given daily immediately before feeding and flushed with 5 mL of water.
Two weeks after the treatment started, all the animals were put on a HFD (Research Diet 5SQ1, Test Diet from Purina). On Day 46 and 56 after the start of the pioglitazone treatment, the animals were given an OGTT and a HIEG clamp respectively to compare to their baseline metabolic response. On day 46 and 56, placebo and pioglitazone were given one hour before the gavage and one hour before the start of the somatostatin infusion. The same amount of glucose as the initial OGTT study was given and the same rate of insulin and hormone was given during the clamp despite the gain weight of the animal, because we know that the animals mainly gain fat, a tissue that is unresponsive to the level of insulin.
Additionally, every 2 weeks, blood was harvested from each animal for multiple chemical measurements (Adiponectin, Superchem panel (performed by Antech Diagnostics)) before pioglitazone administration and feeding. Pioglitazone was also measured every 2 weeks in the serum, harvested 1 hour after pill administration and feeding.

client-owned dogs = assay: Randomized, masked, placebo-controlled field pilot study on aging biomarkers (Example 6); type: in vivo, dog
Text: The effects of Pioglitazone aging biomarkers in client-owned dogs can be determined. Approximately 60 dogs are enrolled and randomized into two groups at a 3:1 ratio of treatment to control. Dogs can be screened on visit 1, which is 7 days before the study, and complete screening on visit 2, Day 0 of the study. The treatment can be randomized with dosing beginning on Day 0. The study has participant dogs enrolled for approximately 3 months, with evaluation visits about every 30 days for biomarker measurements and safety evaluations. The HRQL, CFI, insulin, and FFA blood levels are measured.
Fasting insulin. Dogs should be fasted for 12 hours before blood draw for fasting insulin. If the dog is not fasted before the blood collection, the Protocol Deviation: Subject Level eCRF must be completed.
The study will be a multi-site, field pilot study. The design is a randomized, masked, placebo-controlled study in client-owned dogs. The study will contain two treatment groups randomized at a 3:1 ratio in Table 10 below.
The study will enroll an estimated 60 dogs across all study sites. Approximately 45 dogs will be treated with IVP, and approximately 15 dogs will be treated with CP. Additional dogs may be enrolled if initial attrition rates exceed the anticipated level. Likewise, fewer dogs may be enrolled if the study ends before full enrollment.
Drug Administration. IVP/CP will be administered by the Owner to the subject once daily starting at study visit 2 and for the duration of the study. The administration route for IVP and CP is by mouth (PO).

dogs [3] = conditions: dog, in vivo, cited from earlier work
Beagle dogs [4] = test system: Beagle dogs
Description: This 17-week HFD design, metabolic reversal study was conducted on 4 groups of 12 Beagle dogs each. All dogs included in the study were males, aged 3-7 years, weighing 12.05-22.95 kg. After 63 days (9 weeks) of normal diet or HFD-feeding, Placebo was administered daily by mouth to Groups 1 and 2 while pioglitazone was administered daily by mouth to Groups 3 and 4.
Animals were fed their daily food ration (g) as a split ration. Each feeding (AM or PM) consisted of approximately half the animal's daily food ration and was offered approximately 4 hours apart. Dogs were given approximately 2 hours to consume each ration and any remaining food was weighed back for each feeding.
All dogs were fed ad libitum “normal diet” (ND) consisting of 55% fat for all baseline measurements prior to study start. Prior to the study start, dogs were randomly assigned to either ND or HFD consisting of 74% fat, on which they remained for approximately 9 weeks. After 9 weeks, HFD-fed animals were further randomized to treatment groups prior to dosing based on fasting insulin levels as the primary factor and total body weight as the secondary factor. Dogs in the ND group were continued on ND through the conclusion of the study. Blood collections for Chemistry, Haematology, Triglycerides, Cholesterol, Metabolomics and Lipidomics, efficacy Biomarkers (Adiponectin, Fasting Insulin, and Leptin), pioglitazone pharmacokinetics, Cytokines (IL-6 and TNFa) and Non-esterified fatty acids (NEFA) were performed throughout the study to assess the diet and drug-related effects on markers of safety and metabolic function. Baseline (Day −56) and Pre-Treatment (Day 0) readings of each parameter were compared to Treatment (Day 57) readings.
OGTTs were performed during the Pre-Treatment (Day −14) and Treatment (Day 42) phases to assess glucose and insulin kinetics and insulin sensitivity. OGTTs were carried out as previously described by Coate et al., 2010. Briefly, dogs were fasting overnight prior to conducting the procedure. Blood was sampled and serum and plasma separated at −20 and 0 minutes pre-glucose bolus to establish fasting glucose and insulin values. At 0 minutes (t=0), a glucose bolus (0.9 g/kg, p.o.) was delivered. Blood was collected at 5, 10, 20, 30, 40, 50, 60, 70, 80, 90, 120, 180 and 240 minutes post-glucose bolus. Serum was then analyzed for glucose and plasma was analyzed for insulin levels at each time point.
Dogs were fasted for a minimum of 12 hours prior to the first blood draw of each sampling day. D2O and ^2H2^18O were prepared with autoclaved glassware and utensils, weighed out separately, and drawn into separate syringes. Body weights were taken the day of sampling and prepared D2O and ^2H2^18O were drawn into separate syringes per animal and weighed to the third decimal place prior to administration. Two milliliters (mL) of blood was collected prior to administration of 50 mg/kg of 99% D2O and 150 mg/kg of 97% ^2H2^18O via oral syringe. Blood samples were then collected at 2 h, 24 h, 72 h, 120 h and 168 h after initial D2O+^2H2^18O administration. Following collection, blood was plasma separated in K2EDTA tubes and were stored at −80° C. until analysis.
Individual and summary statistics, arithmetic means, percentage change and within and between group comparisons were done.
Subjects were administered Pioglitazone treatment, and fatty acids analysis was performed from blood samples of subjects. Fatty acids were detected and analyzed by species and quantified. Additionally, the effects of Pioglitazone on each different species of fatty acids were analyzed, as shown in FIG. 6B (Palmitic Acid), FIG. 6C (Linoleic Acid), and FIG. 6D (Oleic Acid).

dogs [5] = conditions: cited from earlier work
[6] = beagle dogs on HFD, both doses, Day 56, excluding 4 dogs with non-comparable insulins
[7] = beagle dogs on HFD, clamp experiments
[8] = subjects 001-SAR-007 and 003-BAK-018
[9] = HFD-fed Beagle dogs, 1 or 2 mg/kg/day by mouth
[10] = HFD-fed Beagle dogs, vs HFD-fed placebo group

Question: With `CCc1ccc(CCOc2ccc(CC3SC(=O)NC3=O)cc2)nc1.Cl` (stereo not shown) [pioglitazone] as the molecule, how does the “frequency of clinical signs” value (dogs [1]) read?
Answer: The value was “The frequency appeared dose-dependent”.

Question: What about the “insulin response during the OGTT” value (Beagle dogs [2]; beagle dogs on HFD, 1 mg/kg and 2 mg/kg daily, Day 46) of the same molecule?
Answer: Its value is “reduced compared to the placebo group”.

Question: And the glucose metabolism (Beagle dogs [2]; beagle dogs on HFD, OGTT)?
Answer: Its glucose metabolism is “normalize glucose metabolism without increasing insulin secretion”.

Question: What about the “GIR (glucose infusion rate), HIEG clamp” value (Beagle dogs [2]; [6]) of the same molecule?
Answer: Its value is “able to overcome the defect”.

Question: What about the “Rd (rate of glucose disappearance), HIEG clamp” value (Beagle dogs [2]; [6]) of the same molecule?
Answer: Its value is “able to overcome the defect”.

Question: And the “fasting FFA levels” value (Beagle dogs [2]; [7])?
Answer: Its value is “reduced”.

Question: What about the inhibition of lipolysis (Beagle dogs [2]; [7]) of the same molecule?
Answer: The inhibition of lipolysis was “improved”.

Question: And the circulating adiponectin (Beagle dogs [2]; beagle dogs, 1 mg/kg and 2 mg/kg daily, by Day 14, vs placebo group)?
Answer: The circulating adiponectin was “significant increase; also recorded: larger and more sustained than in the placebo group”.

Question: What about the TBili (client-owned dogs; Subject 001-SAR-007, less than one month after starting, screening 0.5) of the same molecule?
Answer: Its TBili is 0.2 mg/dL.

Question: And the insulin (client-owned dogs; Subject 001-SAR-007, less than one month after starting, screening 76.8, reference range 5.2-41.5)?
Answer: Its insulin is 16.2 uIU/mL.

Question: And the ALP (client-owned dogs; Subject 001-SAR-007, less than one month after starting, screening 177, reference range 5-160)?
Answer: The ALP was 88 U/L.

Question: And the AST (client-owned dogs; Subject 001-SAR-007, less than one month after starting, screening 182, reference range 16-55)?
Answer: Its AST is 22 U/L.

Question: And the ALT (client-owned dogs; Subject 001-SAR-007, less than one month after starting, screening 469, reference range 18-121)?
Answer: Its ALT is 48 U/L.

Question: And the ALP (client-owned dogs; Subject 003-BAK-016, screening 241 U/L, reference range 5-160 U/L)?
Answer: The ALP was “remained elevated”.

Question: What about the insulin (client-owned dogs; Subject 003-BAK-016, subsequent visits before visit 6, screening 96.6, reference range 5.2-41.5) of the same molecule?
Answer: Its insulin is 62.2 uIU/mL and 52.9 uIU/mL.

Question: And the insulin (client-owned dogs; Subject 003-BAK-016, visit 6, 90 days later, screening 96.6)?
Answer: The insulin was 42.3 uIU/mL.

Question: What about the insulin (client-owned dogs; Subject 003-BAK-018, visit 4 (approximately day 30), screening 66.3, reference range 5.2-41.5) of the same molecule?
Answer: Its insulin is 15.3 uIU/mL.

Question: And the ALP (client-owned dogs; Subject 003-BAK-018, visit 4 (approximately day 30), screening 1603, reference range 5-160)?
Answer: Its ALP is 774 U/L.

Question: What about the liver enzymes (client-owned dogs; all 3 dogs with elevated baseline insulin) of the same molecule?
Answer: The liver enzymes was “reduction in liver enzymes”.

Question: And the “average reduction in insulin levels” value (client-owned dogs; client-owned dogs, baseline to day 90, not statistically significant (p=0.538))?
Answer: Its value is 2.35 uIU/mL.

Question: What about the “average reductions in insulin levels compared with control group” value (client-owned dogs; client-owned dogs, p=0.171) of the same molecule?
Answer: The value was “trending lower”.

Question: What about the “gross lipemia in the blood samples” value (client-owned dogs; [8]) of the same molecule?
Answer: The value was “eliminating gross lipemia”.

Question: And the triglycerides (client-owned dogs; [8])?
Answer: Its triglycerides is “reduction or normalization”.

Question: What about the “insulin levels in dogs with elevated baseline insulin levels” value (client-owned dogs; three pioglitazone-treated dogs) of the same molecule?
Answer: The value was “notable effect”.

Question: What about the serum albumin (dogs [3]; 10 mg/kg/day) of the same molecule?
Answer: The serum albumin was “Decrease in serum albumin and protein”.

Question: And the serum protein (dogs [3]; 10 mg/kg/day)?
Answer: The serum protein was “Decrease in serum albumin and protein”.

Question: What about the hematocrit (dogs [3]; 10 mg/kg) of the same molecule?
Answer: Its hematocrit is “Reduction in hematocrit in both sexes”.

Question: What about the caloric intake (Beagle dogs [4]; HFD-fed Beagle dogs) of the same molecule?
Answer: The caloric intake was “without any effects”.

Question: And the food consumption (Beagle dogs [4]; HFD-fed Beagle dogs)?
Answer: Its food consumption is “without any effects”.

Question: And the leptin levels (Beagle dogs [4]; HFD-fed Beagle dogs)?
Answer: The leptin levels was “without any effects”.

Question: What about the “HFD-induced elevation of SFA” value (Beagle dogs [4]; [9]) of the same molecule?
Answer: The value was “reversed HFD-induced elevation of SFA”.

Question: And the palmitic acid (Beagle dogs [4]; [9])?
Answer: The palmitic acid was “decreases in palmitic acid”.

Question: And the “levels of metabolically deleterious fatty acids (SFAs, palmitic acid, linoleic acid, oleic acid)” value (Beagle dogs [4]; HFD-fed Beagle dogs, 1 or 2 mg/kg/day by mouth, GC-MS)?
Answer: The value was “dose dependently regulates”.

Question: What about the “glucose excursion during glucose tolerance test” value (Beagle dogs [4]; HFD-fed Beagle dogs, 1 or 2 mg/kg/day by mouth, OGTT Day 42) of the same molecule?
Answer: Its value is “no impact”.

Question: And the adiponectin (Beagle dogs [4]; HFD-fed Beagle dogs, 1 or 2 mg/kg/day by mouth, biomarker of target engagement)?
Answer: The adiponectin was “significantly upregulates”.

Question: And the fasting glucose measurements (Beagle dogs [4]; HFD-fed Beagle dogs, pioglitazone 1 or 2 mg/kg/day by mouth after 9 weeks HFD)?
Answer: Its fasting glucose measurements is “no impact”.

Question: And the “size of adipocytes in the viscera (histological examination)” value (Beagle dogs [4]; HFD-fed Beagle dogs, visceral and subcutaneous adipose tissue)?
Answer: Its value is “decreased the size of adipocytes in the viscera”.

Question: What about the “body composition: fat mass” value (Beagle dogs [4]; [10]) of the same molecule?
Answer: Its value is “increases in fat mass”.

Question: What about the circulating cholesterol (Beagle dogs [4]; [10]) of the same molecule?
Answer: Its circulating cholesterol is “significantly reduced”.

Question: What about the circulating triglycerides (Beagle dogs [4]; [10]) of the same molecule?
Answer: The circulating triglycerides was “significantly reduced”.

Question: And the fatty acid profiles (Beagle dogs [4]; [10])?
Answer: Its fatty acid profiles is “normalized detrimental fatty acid profiles”.

Question: What about the tolerability of administration (Beagle dogs [4]; dog, in vivo) of the same molecule?
Answer: Its tolerability of administration is “tolerated Placebo/pioglitazone administration well”.

Question: What about the nontoxic dose (dogs [5]; 26 weeks, oral 0, 1, 3, 10 mg/kg/day) of the same molecule?
Answer: The nontoxic dose was “be 3 mg/kg/day”.

Question: What about the hydropericardium (dogs [5]; dog, in vivo, 10 mg/kg) of the same molecule?
Answer: Its hydropericardium is “hydroperi-”.

Question: And the leukocytes (dogs [5]; dog, in vivo, 10 mg/kg)?
Answer: Its leukocytes is “increase in platelet and leukocytes”.

Question: And the platelet (dogs [5]; dog, in vivo, 10 mg/kg)?
Answer: Its platelet is “increase in platelet and leukocytes”.
